Data from ChEMBL document CHEMBL1143892, “Oligo(tyrosine sulfate)s as heparin pentasaccharide mimic: evaluation by surface noncovalent affinity mass spectrometry” (2008).
Non-standard residues stand in square brackets, D forms with d. Residues, ends and D or L forms follow the SMILES beside them. *: point of attachment. X1 = O=C([C@H](Cc1ccc(OS(=O)(=O)O)cc1)NS(=O)(=O)O)*; sY = N[C@@H](Cc1ccc(OS(=O)(=O)O)cc1)C(=O)O

Tests used:
Format in all cases: functional
[1] = tested on: Plasma; experiment: Anticoagulant activity in human plasma assessed as activated partial thromboplastin time at 1 mg/ml after 15 mins
[2] = tested on: Plasma; experiment: Anticoagulant activity in human plasma assessed as activated partial thromboplastin time at 0.01 mg/ml after 15 mins
[3] = tested on: Plasma; experiment: Anticoagulant activity in human plasma assessed as activated partial thromboplastin time at 0.3 mg/ml after 15 mins
[4] = tested on: Plasma; experiment: Anticoagulant activity in human plasma assessed as activated partial thromboplastin time at 0.1 mg/ml after 15 mins
[5] = tested on: Plasma; experiment: Anticoagulant activity in human plasma assessed as activated partial thromboplastin time at 0.03 mg/ml after 15 mins

`O=C(O)[C@H](Cc1ccc(OS(=O)(=O)[O-])cc1)NC(=O)[C@H](Cc1ccc(OS(=O)(=O)[O-])cc1)NC(=O)[C@H](Cc1ccc(OS(=O)(=O)[O-])cc1)NC(=O)[C@H](Cc1ccc(OS(=O)(=O)[O-])cc1)NC(=O)[C@H](Cc1ccc(OS(=O)(=O)[O-])cc1)NC(=O)[C@H](Cc1ccc(OS(=O)(=O)[O-])cc1)NC(=O)[C@H](Cc1ccc(OS(=O)(=O)[O-])cc1)NC(=O)[C@H](Cc1ccc(OS(=O)(=O)[O-])cc1)NC(=O)[C@H](Cc1ccc(OS(=O)(=O)[O-])cc1)NS(=O)(=O)[O-].[Na+].[Na+].[Na+].[Na+].[Na+].[Na+].[Na+].[Na+].[Na+].[Na+]` (X1-[sY][sY][sY][sY][sY][sY][sY][sY]-OH) gave an APTT [1] of 95.8 s, an APTT [2] of 31.9 s and an APTT [3] of 45.7 s. It also gave an APTT [4] of 36.5 s and an APTT [5] of 33.1 s.

Work on `N[C@@H](Cc1ccc(OS(=O)(=O)[O-])cc1)C(=O)N[C@@H](Cc1ccc(OS(=O)(=O)[O-])cc1)C(=O)N[C@@H](Cc1ccc(OS(=O)(=O)[O-])cc1)C(=O)N[C@@H](Cc1ccc(OS(=O)(=O)[O-])cc1)C(=O)N[C@@H](Cc1ccc(OS(=O)(=O)[O-])cc1)C(=O)N[C@@H](Cc1ccc(OS(=O)(=O)[O-])cc1)C(=O)N[C@@H](Cc1ccc(OS(=O)(=O)[O-])cc1)C(=O)O.[Na+].[Na+].[Na+].[Na+].[Na+].[Na+].[Na+]` (H-[sY][sY][sY][sY][sY][sY][sY]-OH) yielded an APTT [1] of 40.6 s, an APTT [2] of 30.4 s and an APTT [3] of 32.4 s. The APTT [4] was 31 s and the APTT [5] was 30.5 s.

Work on `N[C@@H](Cc1ccc(OS(=O)(=O)[O-])cc1)C(=O)N[C@@H](Cc1ccc(OS(=O)(=O)[O-])cc1)C(=O)N[C@@H](Cc1ccc(OS(=O)(=O)[O-])cc1)C(=O)N[C@@H](Cc1ccc(OS(=O)(=O)[O-])cc1)C(=O)N[C@@H](Cc1ccc(OS(=O)(=O)[O-])cc1)C(=O)N[C@@H](Cc1ccc(OS(=O)(=O)[O-])cc1)C(=O)N[C@@H](Cc1ccc(OS(=O)(=O)[O-])cc1)C(=O)N[C@@H](Cc1ccc(OS(=O)(=O)[O-])cc1)C(=O)N[C@@H](Cc1ccc(OS(=O)(=O)[O-])cc1)C(=O)N[C@@H](Cc1ccc(OS(=O)(=O)[O-])cc1)C(=O)O.[Na+].[Na+].[Na+].[Na+].[Na+].[Na+].[Na+].[Na+].[Na+].[Na+]` (H-[sY][sY][sY][sY][sY][sY][sY][sY][sY][sY]-OH) yielded an APTT [1] of 153.7 s, an APTT [2] of 30.6 s and an APTT [3] of 90.5 s. It also gave an APTT [4] of 41 s and an APTT [5] of 32.1 s.

Compound `O=C([O-])[C@H](Cc1ccc(OS(=O)(=O)[O-])cc1)NC(=O)[C@H](Cc1ccc(OS(=O)(=O)[O-])cc1)NC(=O)[C@H](Cc1ccc(OS(=O)(=O)[O-])cc1)NC(=O)[C@H](Cc1ccc(OS(=O)(=O)[O-])cc1)NC(=O)[C@H](Cc1ccc(OS(=O)(=O)[O-])cc1)NC(=O)[C@H](Cc1ccc(OS(=O)(=O)[O-])cc1)NC(=O)[C@H](Cc1ccc(OS(=O)(=O)[O-])cc1)NC(=O)[C@H](Cc1ccc(OS(=O)(=O)[O-])cc1)NC(=O)[C@H](Cc1ccc(OS(=O)(=O)[O-])cc1)NC(=O)[C@H](Cc1ccc(OS(=O)(=O)[O-])cc1)NC(=O)[C@H](Cc1ccc(OS(=O)(=O)[O-])cc1)NC(=O)[C@H](Cc1ccc(OS(=O)(=O)[O-])cc1)NS(=O)(=O)[O-].[Na+].[Na+].[Na+].[Na+].[Na+].[Na+].[Na+].[Na+].[Na+].[Na+].[Na+].[Na+].[Na+].[Na+]` (X1-[sY][sY][sY][sY][sY][sY][sY][sY][sY][sY][sY]-OH) has an APTT [1] of 172.1 s, an APTT [2] of 32 s and an APTT [3] of 75.7 s. It also gave an APTT [4] of 50.3 s and an APTT [5] of 37.6 s.

In the case of `O=C(O)[C@H](Cc1ccc(OS(=O)(=O)[O-])cc1)NC(=O)[C@H](Cc1ccc(OS(=O)(=O)[O-])cc1)NC(=O)[C@H](Cc1ccc(OS(=O)(=O)[O-])cc1)NC(=O)[C@H](Cc1ccc(OS(=O)(=O)[O-])cc1)NC(=O)[C@H](Cc1ccc(OS(=O)(=O)[O-])cc1)NC(=O)[C@H](Cc1ccc(OS(=O)(=O)[O-])cc1)NS(=O)(=O)[O-].[Na+].[Na+].[Na+].[Na+].[Na+].[Na+].[Na+]` (X1-[sY][sY][sY][sY][sY]-OH), the APTT [1] is reported as 64.8 s, the APTT [2] is reported as 30.8 s and the APTT [3] is reported as 35.7 s. It also gave an APTT [4] of 32.3 s and an APTT [5] of 31.2 s.
